{"source": "patent US12329756B2", "about": "“Regulation of eIF4E activity for migraine therapy” (Board of Regents, The University of Texas System, priority 2020, dated 2025)", "key": {"[1]": {"tested_on": "hyperglycemic mice", "conditions": "cited from earlier work"}, "[2]": {"biological_target": "T1, Candida Pkc1 (Candida albicans, UniProt P43057)", "T1 sequence (P43057 1-1097)": "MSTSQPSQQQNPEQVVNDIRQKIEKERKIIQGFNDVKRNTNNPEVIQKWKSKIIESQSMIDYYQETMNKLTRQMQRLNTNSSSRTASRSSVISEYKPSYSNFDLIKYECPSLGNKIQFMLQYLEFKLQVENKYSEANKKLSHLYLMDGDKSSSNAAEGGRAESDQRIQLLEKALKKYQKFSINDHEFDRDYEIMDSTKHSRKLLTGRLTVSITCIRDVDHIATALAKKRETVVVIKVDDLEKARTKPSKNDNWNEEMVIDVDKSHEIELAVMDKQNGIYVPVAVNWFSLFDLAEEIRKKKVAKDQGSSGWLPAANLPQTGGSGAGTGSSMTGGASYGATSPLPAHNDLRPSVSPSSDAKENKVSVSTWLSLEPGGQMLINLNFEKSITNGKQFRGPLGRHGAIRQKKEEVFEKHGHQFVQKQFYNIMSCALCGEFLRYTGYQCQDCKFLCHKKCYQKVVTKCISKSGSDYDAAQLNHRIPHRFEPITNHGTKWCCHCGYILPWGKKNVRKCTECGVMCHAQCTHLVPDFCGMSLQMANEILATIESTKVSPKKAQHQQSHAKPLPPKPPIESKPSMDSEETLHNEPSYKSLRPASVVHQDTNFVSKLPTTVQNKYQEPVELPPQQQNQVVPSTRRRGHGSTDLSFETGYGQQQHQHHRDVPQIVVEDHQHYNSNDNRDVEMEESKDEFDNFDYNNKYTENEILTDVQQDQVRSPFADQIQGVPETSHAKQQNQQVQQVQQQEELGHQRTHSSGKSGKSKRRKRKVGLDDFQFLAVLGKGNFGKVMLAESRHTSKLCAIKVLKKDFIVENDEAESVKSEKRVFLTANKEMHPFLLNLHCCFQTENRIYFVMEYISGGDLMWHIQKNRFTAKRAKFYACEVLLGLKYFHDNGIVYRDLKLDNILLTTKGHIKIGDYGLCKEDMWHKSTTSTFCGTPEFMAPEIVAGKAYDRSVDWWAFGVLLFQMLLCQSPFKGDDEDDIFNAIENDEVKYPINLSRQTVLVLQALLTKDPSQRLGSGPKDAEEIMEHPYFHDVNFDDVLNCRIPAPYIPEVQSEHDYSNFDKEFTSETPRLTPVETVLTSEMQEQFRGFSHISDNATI", "conditions": "cited from earlier work"}, "[3]": {"tested_on": "mice", "conditions": "Moy et al. (2017); cited from earlier work"}, "[4]": {"conditions": "in vivo; cited from earlier work"}, "[5]": {"conditions": "local administration; cited from earlier work"}, "[6]": {"tested_on": "hindpaw", "conditions": "local co-injection with IL-6 into the hindpaw, previous study; cited from earlier work"}, "[7]": {"tested_on": "female ICR mice", "assay": "dural IL-6 facial hypersensitivity and hyperalgesic priming model (von Frey facial withdrawal threshold)", "type": "in vivo", "conditions": "for hyperalgesic priming: response to second dural stimulus SIF pH 7.0: 25 μg dural co-injection with 0.1 ng IL-6, pH 7.0 given after return to baseline; for acute facial mechanical hypersensitivity after dural IL-6: 25 μg dural co-injection with 0.1 ng IL-6, versus IL-6 alone", "protocol": "Mice received a dural injection of interleukin-6 in the absence or presence of the protein synthesis inhibitor anisomycin or the translation initiation inhibitor 4EGI-1 and were tested for facial hypersensitivity. Upon returning to baseline, mice were given a second, non-noxious dural injection of pH 7.0 to test for priming. Additionally, eIF4ES209A mice lacking phosphorylation of mRNA cap-binding protein eIF4E received dural interleukin-6 or were subjected to repeated restraint stress and then tested for facial hypersensitivity. After returning to baseline, mice were given either dural pH 7.0 or a systemic sub-threshold dose of the nitric oxide donor sodium nitroprusside and tested for priming.\nFirst female mice were administered either 0.1 ng of IL-6, 25 μg of anisomycin (a general protein synthesis inhibitor), or a co-injection of both onto the dura to induce mechanical facial allodynia that persisted for more than 24 h and resolved by 72 h (FIG. 2). Upon returning to baseline, a second stimulus, SIF (pH 7.0), was administered onto the dura to reveal the presence of hyperalgesic priming from the initial IL-6 stimulus. […] This hypersensitivity persisted for more than 5 h.\nSimilar to the experiments used to generate FIG. 2, 0.1 ng of IL-6, 25 μg of 4EGI-1, a compound that mimics the activity of 4E-BP1, or a co-injection of both was administered onto the dura of female mice (FIG. 3). The resulting mechanical allodynia induced by IL-6 persisted for more than 24 h and resolved after 72 h. Upon returning to baseline, mice were exposed to a dural injection of low pH. […] Thus, assembly of the eIF4F complex locally in the dura appears to be critical to the development of long-lasting mechanical hypersensitivity following repeated stress.\nHuman recombinant IL-6 protein (R&D Systems) stock solution (100 mg/mL) was prepared in sterile 0.1% BSA and diluted to 1 ng/mL in synthetic interstitial fluid (SIF) consisting of 135 mM NaCl, 5 mM KCl, 10 mM HEPES, 2 mM CaCl2, 10 mM glucose, 1 mM MgCl2 (pH 7.4, 310 mOsm). Anisomycin (Tocris) stock solution (135 mg/mL) and 4EGI-1 (Enzo) stock solution (20 mg/mL) were both prepared in sterile 0.1% BSA and diluted to 5 mg/mL in SIF. Sodium nitroprusside (SNP) (Sigma-Aldrich) was prepared in sterile phosphate buffered saline (PBS) at the time of use and was kept away from light. For dural injections, mice received […] injections of either IL-6, anisomycin, 4EGI-1, SIF, or a combination of IL-6 and anisomycin or IL-6 and 4EGI-1 for acute testing. For testing the ability of mice to prime to the initial stimulus in these dural injection experiments, […] of SIF pH 7.0 were administered onto the dura. […]"}, "[8]": {"tested_on": "TNFa mRNA", "conditions": "cited from earlier work"}, "[9]": {"tested_on": "eIF4E phosphorylation at serine 209", "conditions": "in vitro, tumor cell lines, dose-dependent; read-out: IC50 for reduction of eIF4E phosphorylation at serine 209; cited from earlier work"}, "[10]": {"tested_on": "DLBCL cell lines", "conditions": "multiple DLBCL cell lines; cited from earlier work"}, "[11]": {"tested_on": "TNFa, IL-6, IL-10 and CXCL10 production in TMD8, OCI-Ly3 and HBL1 DLBCL cell lines", "conditions": "cited from earlier work"}, "[12]": {"tested_on": "models which harbor activating MyD88 mutations", "conditions": "in vivo, multiple models harboring activating MyD88 mutations; cited from earlier work"}, "[13]": {"tested_on": "A549 cells", "conditions": "cited from earlier work"}, "[14]": {"tested_on": "Jurkat cells", "conditions": "cited from earlier work"}}, "note": "pIC50: −log10 of the molar value.", "data": [{"compound": "CC(=O)C1=C(O)C=C2Oc3c(C(N)=O)c(O)cc(O)c3[C@]2(C)C1=O", "note": "[Cercosporamide]", "values": [{"measurement": "plasma glucose", "setting": "[1]", "value": "lowering of plasma glucose"}, {"measurement": "pIC50", "setting": "[2]", "value": 7.60}, {"measurement": "cold hypersensitivity induced by peripheral nerve injury", "setting": "[3]", "value": "reduced"}, {"measurement": "oral bioavailability", "setting": "[4]", "value": "orally bioavailable"}]}, {"compound": "COc1ccc(C[C@H]2NC[C@H](O)[C@H]2OC(C)=O)cc1", "note": "[anisomycin]", "values": [{"measurement": "mechanical hypersensitivity and injury-induced changes in nociceptor excitability", "setting": "[5]", "value": "reduces"}, {"measurement": "acute mechanical hypersensitivity after IL-6 into the hindpaw", "setting": "[6]", "value": "prevented"}, {"measurement": "hyperalgesic priming: response to second dural stimulus SIF pH 7.0", "setting": "[7]", "value": "did not respond to the low pH"}, {"measurement": "acute facial mechanical hypersensitivity after dural IL-6", "setting": "[7]", "value": "only minor differences"}]}, {"compound": "Cc1cc(Nc2cc(N)ncn2)c(=O)n2c1C(=O)NC21CCCCC1", "note": "[eFT508]", "values": [{"measurement": "decrease in TNFa mRNA half-life", "setting": "[8]", "value": 2, "unit": "fold"}, {"measurement": "pIC50", "setting": "[9]", "value": "7.80 to 8.70"}, {"measurement": "anti-proliferative activity", "setting": "[10]", "value": "anti-proliferative activity"}, {"measurement": "production of pro-inflammatory cytokines including TNFa, IL-6, IL-10 and CXCL10", "setting": "[11]", "value": "dose-dependent decreases"}, {"measurement": "oral bioavailability", "setting": "[4]", "value": "orally bioavailable"}, {"measurement": "anti-tumor activity", "setting": "[12]", "value": "significant anti-tumor activity"}]}, {"compound": "O=C(O)C(Cc1ccccc1[N+](=O)[O-])=NNc1nc(-c2ccc(Cl)c(Cl)c2)cs1", "note": "[4EGI-1]", "values": [{"measurement": "mechanical hypersensitivity and injury-induced changes in nociceptor excitability", "setting": "[5]", "value": "reduces"}, {"measurement": "activity against A549 cells", "setting": "[13]", "value": "exhibits activity"}, {"measurement": "activity against Jurkat cells", "setting": "[14]", "value": "exhibits activity"}, {"measurement": "hyperalgesic priming: response to second dural stimulus SIF pH 7.0", "setting": "[7]", "value": "robustly blocked"}, {"measurement": "acute facial mechanical hypersensitivity after dural IL-6", "setting": "[7]", "value": "partially attenuated"}]}]}
